From ChEMBL document CHEMBL5360581, “Discovery of a novel dual functional phenylpyrazole-styryl hybrid that induces apoptotic and autophagic cell death in bladder cancer cells” (Eur J Med Chem, 2023) come the findings set out here.

Active and inactive are the calls of the source. The rule behind the calls is not given here.

The subject of data set [1] is EJ-28. Put plainly: Antiproliferative activity against human EJ-28 cells assessed as reduction in cell viability at 20 uM measured for 72 hrs by MTT assay. The class given is functional, cell-based. In general terms: Tetrazolium dyes change colour on reduction, which living cells bring about.
Data set [2] concerns A549. In words: Cytotoxicity against human A549 cells assessed inhibition of cell growth incubated for 72 hrs by MTT assay. The class given is functional, cell-based. Particulars: A549, 72 h.
A short description of data set [3]: Selectivity index, ratio of IC50 for cytotoxicity against human NHDF cells to IC50 for cytotoxicity against human MCF7 cells. As to conditions: NHDF cells and MCF7 cells, read-out: Ratio IC50. Type of data set: toxicity, cell-based.
Data set [4] can be described thus: Selectivity index, ratio of IC50 for cytotoxicity against human NHDF cells to IC50 for cytotoxicity against human SW620 cells.
Data set [5] is described as follows: Cytotoxicity against human NHDF cells assessed inhibition of cell growth incubated for 72 hrs by MTT assay. The class given is toxicity, cell-based.
Data set [6] has as its system MCF7. Put plainly: Cytotoxicity against human MCF7 cells assessed inhibition of cell growth incubated for 72 hrs by MTT assay. Type of data set: functional, cell-based. As to conditions: MCF7, 72 h.
In data set [7] the test system is SW-620. Put plainly: Cytotoxicity against human SW620 cells assessed inhibition of cell growth incubated for 72 hrs by MTT assay. As to conditions: SW-620, 72 h. Type of data set: functional, cell-based.
A short description of data set [8]: Selectivity index, ratio of IC50 for cytotoxicity against human NHDF cells to IC50 for cytotoxicity against human A549 cells. The class given is toxicity, cell-based. Particulars: NHDF cells and A549 cells, read-out: Ratio IC50.
The test system of data set [9] is A549. In words: Antiproliferative activity against human A549 cells assessed as reduction in cell viability at 20 uM measured for 72 hrs by MTT assay. Type of data set: functional, cell-based.
In data set [10] the test system is MCF7. In words: Antiproliferative activity against human MCF7 cells assessed as reduction in cell viability at 20 uM measured for 72 hrs by MTT assay. The class given is functional, cell-based.
Data set [11] can be described thus: Selectivity index, ratio of IC50 for cytotoxicity against human NHDF cells to IC50 for cytotoxicity against human EJ-28 cells.
A short description of data set [12]: Selectivity index, ratio of IC50 for cytotoxicity against human NHDF cells to IC50 for cytotoxicity against human HT-1080 cells.
Data set [13] relates to SW-620. Put plainly: Antiproliferative activity against human SW620 cells assessed as reduction in cell viability at 20 uM measured for 72 hrs by MTT assay. The class given is functional, cell-based.
Data set [14] deals with EJ-28. Put plainly: Cytotoxicity against human EJ-28 cells assessed inhibition of cell growth incubated for 72 hrs by MTT assay. The class given is functional, cell-based. As to conditions: EJ-28, 72 h.
The test system of data set [15] is HT-1080. Put plainly: Antiproliferative activity against human HT-1080 cells assessed as reduction in cell viability at 20 uM measured for 72 hrs by MTT assay. Type of data set: functional, cell-based.
In data set [16] the test system is HT-1080. In words: Cytotoxicity against human HT-1080 cells assessed inhibition of cell growth incubated for 72 hrs by MTT assay. Type of data set: functional, cell-based. Particulars: HT-1080, 72 h.

Consider `Cc1ccc(/C=C/c2cc(-c3cc(Cl)ccc3O)n(-c3ccccc3)n2)s1`, for which the result in the data set with EJ-28 [1], in the data set with A549 [9], in the data set on MCF7 [10], with SW-620 [13] and with HT-1080 [15] was Active. Further, the IC50 came out at 22.7 µM in the data set on A549 [2]; 11.1 µM in the data set on MCF7 [6]; 23 µM in the data set on SW-620 [7]; 8.6 µM with EJ-28 [14]; 21.7 µM in the data set on HT-1080 [16]. Further, the selectivity ratio in data set [3] and in data set [8] was 1.7 each time. Also, the “Ratio IC50” value in data set [4], in [11] and in data set [12] was 1.7 throughout. In addition, in [5], the IC50 at 72 h was 39.4 µM.
For `Oc1ccc(Cl)cc1-c1cc(/C=C/c2ccccc2Cl)nn1-c1ccccc1`, the result with EJ-28 [1], with A549 [9], in the data set on MCF7 [10], with SW-620 [13] and in the data set on HT-1080 [15] was Active. Further, the IC50 in the data set on A549 [2] was determined as 13.2 µM; in the data set with MCF7 [6], 5.7 µM; with SW-620 [7], 9.5 µM; in the data set with EJ-28 [14], 5.1 µM; with HT-1080 [16], 10.9 µM. Further, the selectivity ratio in data set [3] was found to be 0.9; in data set [8] it was 1.5. The results for the “Ratio IC50” value in data set [4], in [11] and in data set [12] were 1.5, 1.5 and 0.9, respectively. Moreover, inhibition in data set [5] was half-maximal at 19.7 µM (IC50 at 72 h).
`COc1cc(/C=C/c2cc(-c3ccccc3O)n(-c3ccccc3)n2)cc(OC)c1OC`: the result in the data set with EJ-28 [1], in the data set on A549 [9], in the data set with MCF7 [10], in the data set with SW-620 [13] and in the data set on HT-1080 [15] was Active. For the same molecule, the IC50 came out at 14.6 µM with A549 [2]; 10.4 µM in the data set on MCF7 [6]; 7.6 µM with SW-620 [7]; 12.3 µM in the data set with EJ-28 [14]; 14.1 µM in the data set on HT-1080 [16]. The selectivity ratio in data set [3] and in data set [8] was more than 3.4 throughout. Besides, the “Ratio IC50” value in data set [4], in data set [11] and in data set [12] was more than 3.4 each time. In data set [5], this molecule returned an IC50 at 72 h of more than 50 µM.
With `COc1ccc(/C=C/c2cc(-c3ccccc3O)n(-c3ccccc3)n2)cc1OC`, the result in the data set with EJ-28 [1], in the data set with A549 [9], in the data set on MCF7 [10], in the data set on SW-620 [13] and with HT-1080 [15] was Active. The IC50 in the data set on A549 [2] is 19.2 µM; in the data set on MCF7 [6], 13 µM; with SW-620 [7], 18.5 µM; in the data set with EJ-28 [14] it was 18.6 µM; with HT-1080 [16] it was 15.9 µM. Further, the selectivity ratio in data set [3] and in data set [8] was more than 2.6 throughout. In addition, the “Ratio IC50” value in [4], in data set [11] and in [12] was more than 2.6 each time. This molecule also came in with an IC50 at 72 h in [5] of more than 50 µM.
Take `Oc1ccc(Cl)cc1-c1cc(/C=C/c2ccc(Cl)c(Cl)c2)nn1-c1ccccc1`: the outcome in the data set with EJ-28 [1], with A549 [9], in the data set with MCF7 [10], with SW-620 [13] and in the data set with HT-1080 [15] was Active. In addition, the IC50 in the data set with A549 [2] worked out at 20.2 µM; in the data set with MCF7 [6] it was 15 µM; in the data set with SW-620 [7], 19.2 µM; in the data set on EJ-28 [14], 4.4 µM; in the data set with HT-1080 [16] it was 17.8 µM. The selectivity ratio in [3] and in [8] was 2 throughout. Besides, the “Ratio IC50” value in data set [4], in data set [11] and in [12] was 2 each time. Half-maximal inhibition in data set [5] (IC50 at 72 h) was put at 40.2 µM.
For `Cc1ccc(/C=C/c2cc(-c3ccccc3O)n(-c3ccccc3)n2)s1`, the result in the data set with EJ-28 [1], in the data set on A549 [9], with MCF7 [10], with SW-620 [13] and in the data set on HT-1080 [15] was Active. Moreover, the IC50 with A549 [2] was found to be 14.5 µM; with MCF7 [6], 12.6 µM; in the data set on SW-620 [7] it was 16.2 µM; with EJ-28 [14], 11 µM; in the data set on HT-1080 [16], 14.2 µM. Further, the selectivity ratio in data set [3] and in [8] was 1.1 throughout. In addition, the “Ratio IC50” value in data set [4], in data set [11] and in data set [12] was 1.1 throughout. In [5], 17.9 µM corresponded to half-maximal inhibition (IC50 at 72 h).
Turning to `O=c1[nH]cc(F)c(=O)[nH]1` [FLUOROURACIL], the IC50 in the data set with A549 [2] amounted to 7.6 µM; in the data set with SW-620 [7], 32.5 µM; in the data set with EJ-28 [14] it was 11.4 µM; in the data set with HT-1080 [16] it was 6 µM. In addition, the “Ratio IC50” value in data set [4], in [11] and in [12] was 1.5 in each case. The same molecule registered an IC50 at 72 h in data set [5] of more than 50 µM.
For the molecule `COc1ccc(/C=C/c2cc(-c3ccccc3O)n(-c3ccccc3)n2)cc1`, the result with EJ-28 [1], in the data set on A549 [9], in the data set with MCF7 [10], in the data set with SW-620 [13] and in the data set with HT-1080 [15] was Active. The IC50 amounted to 20.8 µM with A549 [2]; 13 µM in the data set with MCF7 [6]; 7.9 µM in the data set with SW-620 [7]; 12.9 µM in the data set on EJ-28 [14]; 14.7 µM in the data set on HT-1080 [16]. Besides, the selectivity ratio in data set [3] and in [8] was more than 2.4 in each case. In addition, the “Ratio IC50” value in data set [4], in [11] and in [12] was more than 2.4 each time. Also, the IC50 at 72 h in data set [5] was more than 50 µM.
Consider `Oc1ccccc1-c1cc(/C=C/c2ccc(Cl)s2)nn1-c1ccccc1`, for which the result in the data set with EJ-28 [1], in the data set with A549 [9], with MCF7 [10], in the data set on SW-620 [13] and in the data set on HT-1080 [15] was Active. Further, the IC50 in the data set on A549 [2] worked out at 21.1 µM; in the data set with MCF7 [6] it was 14.5 µM; with SW-620 [7] it was 16.3 µM; with EJ-28 [14] it was 13.6 µM; with HT-1080 [16] it was 17.3 µM. The selectivity ratio in [3] and in [8] was 1.1 in each case. The “Ratio IC50” value in data set [4] turned out to be 0.9; in data set [11] it was 1.1; in [12], 1.1. The same molecule returned a half-maximal inhibitory concentration (IC50) at 72 h in [5] of 18.5 µM.
Consider `COc1ccc(/C=C/c2cc(-c3cc(Cl)ccc3O)n(-c3ccccc3)n2)cc1`, for which the outcome in the data set on EJ-28 [1], in the data set with A549 [9], in the data set on MCF7 [10], with SW-620 [13] and in the data set with HT-1080 [15] was Active. Moreover, the IC50 was 20.9 µM in the data set with A549 [2]; 12.1 µM in the data set with MCF7 [6]; 19.8 µM with SW-620 [7]; 14.3 µM in the data set with EJ-28 [14]; 17.2 µM in the data set with HT-1080 [16]. Also, the selectivity ratio in [3] and in [8] was 2.2 in each case. Also, the “Ratio IC50” value in [4], in [11] and in data set [12] was 2.2 each time. Also, half-maximal inhibition in [5] (IC50 at 72 h) required 47 µM.
Regarding `Oc1ccc(Cl)cc1-c1cc(/C=C/c2ccc(Cl)cc2)nn1-c1ccccc1`, the outcome in the data set on EJ-28 [1], in the data set with A549 [9], in the data set on MCF7 [10], in the data set with SW-620 [13] and with HT-1080 [15] was Active. Besides, the IC50 is 21.5 µM in the data set with A549 [2]; 10.6 µM with MCF7 [6]; 16.6 µM with SW-620 [7]; 6.5 µM in the data set on EJ-28 [14]; 17.4 µM in the data set on HT-1080 [16]. Moreover, the selectivity ratio in data set [3] and in data set [8] was 2 each time. In addition, the “Ratio IC50” value in [4], in [11] and in [12] was 2 in each case. In addition, the IC50 at 72 h in data set [5] came to 42.9 µM.
For the molecule `Oc1ccccc1-c1cc(/C=C/c2ccc(Cl)c(Cl)c2)nn1-c1ccccc1`, the outcome in the data set on EJ-28 [1], with A549 [9], in the data set with MCF7 [10], in the data set with SW-620 [13] and in the data set on HT-1080 [15] was Active. Moreover, the IC50 in the data set on A549 [2] came to 21.5 µM; with MCF7 [6], 18.1 µM; in the data set with SW-620 [7] it was 18.6 µM; in the data set with EJ-28 [14] it was 15.9 µM; in the data set with HT-1080 [16], 22.2 µM. Moreover, the selectivity ratio in data set [3] and in data set [8] was 2 each time. For the same molecule, the “Ratio IC50” value in data set [4], in [11] and in data set [12] was 2 throughout. The IC50 at 72 h in data set [5] stood at 43.5 µM.

What is called IC50 is the point on the concentration scale where inhibition reaches its midpoint.
